Tests used:
[1] = target: Serine/threonine-protein kinase PAK 2 (Homo sapiens) (UniProt Q13177); assay: Residual activity of PAK2 at 10 uM by microplate scintillation counting
[2] = target: Misshapen-like kinase 1 (Homo sapiens) (UniProt Q8N4C8); assay: Residual activity of MINK1 at 1 uM by microplate scintillation counting
[3] = target: T1, cGMP-dependent protein kinase 1 (Homo sapiens) (UniProt Q13976); assay: Residual activity of PRKG1 at 10 uM by microplate scintillation counting
T1 sequence (whole entry): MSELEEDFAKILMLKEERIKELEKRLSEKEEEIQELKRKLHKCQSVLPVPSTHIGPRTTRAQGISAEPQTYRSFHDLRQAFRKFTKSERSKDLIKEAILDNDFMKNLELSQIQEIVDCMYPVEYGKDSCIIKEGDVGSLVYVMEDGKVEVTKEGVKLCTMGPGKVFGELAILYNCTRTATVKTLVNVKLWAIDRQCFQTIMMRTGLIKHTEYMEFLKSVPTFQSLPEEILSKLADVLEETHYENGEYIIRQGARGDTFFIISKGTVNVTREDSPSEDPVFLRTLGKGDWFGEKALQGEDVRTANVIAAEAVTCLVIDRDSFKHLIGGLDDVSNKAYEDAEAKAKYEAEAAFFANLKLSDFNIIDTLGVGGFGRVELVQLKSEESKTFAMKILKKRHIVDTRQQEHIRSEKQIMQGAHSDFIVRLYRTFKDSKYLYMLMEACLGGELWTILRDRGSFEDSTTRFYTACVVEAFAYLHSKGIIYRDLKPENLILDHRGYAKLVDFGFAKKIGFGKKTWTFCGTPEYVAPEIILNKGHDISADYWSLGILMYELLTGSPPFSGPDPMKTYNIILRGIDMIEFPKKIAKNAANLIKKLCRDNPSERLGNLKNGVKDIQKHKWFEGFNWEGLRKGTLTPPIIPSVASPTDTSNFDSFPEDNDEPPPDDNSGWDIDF

[4] = target: Wee1-like protein kinase (Homo sapiens) (UniProt P30291); assay: Residual activity of WEE1 at 0.1 uM by microplate scintillation counting
Chain of Wee1-like protein kinase (Homo sapiens) (P30291 whole entry, looked up): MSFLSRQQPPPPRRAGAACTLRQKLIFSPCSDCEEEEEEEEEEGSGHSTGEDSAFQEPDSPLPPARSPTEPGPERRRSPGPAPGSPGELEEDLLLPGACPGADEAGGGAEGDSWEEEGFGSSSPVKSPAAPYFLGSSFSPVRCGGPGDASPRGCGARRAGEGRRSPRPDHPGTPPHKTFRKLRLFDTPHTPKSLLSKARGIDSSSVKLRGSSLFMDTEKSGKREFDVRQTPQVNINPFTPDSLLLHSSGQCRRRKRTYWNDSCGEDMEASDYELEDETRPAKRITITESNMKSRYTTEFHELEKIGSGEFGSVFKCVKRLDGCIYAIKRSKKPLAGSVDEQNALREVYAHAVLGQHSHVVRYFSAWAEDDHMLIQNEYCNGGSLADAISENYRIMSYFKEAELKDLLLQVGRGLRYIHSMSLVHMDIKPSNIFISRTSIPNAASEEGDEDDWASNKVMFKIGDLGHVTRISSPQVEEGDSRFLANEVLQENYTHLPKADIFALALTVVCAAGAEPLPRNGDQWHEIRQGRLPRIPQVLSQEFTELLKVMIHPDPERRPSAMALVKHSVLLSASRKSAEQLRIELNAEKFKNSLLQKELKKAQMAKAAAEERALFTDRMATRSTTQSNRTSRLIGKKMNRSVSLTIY

[5] = target: T2, Tyrosine-protein kinase Mer (Homo sapiens) (UniProt Q12866); assay: Residual activity of MERTK at 0.1 uM by microplate scintillation counting
T2 sequence (whole entry): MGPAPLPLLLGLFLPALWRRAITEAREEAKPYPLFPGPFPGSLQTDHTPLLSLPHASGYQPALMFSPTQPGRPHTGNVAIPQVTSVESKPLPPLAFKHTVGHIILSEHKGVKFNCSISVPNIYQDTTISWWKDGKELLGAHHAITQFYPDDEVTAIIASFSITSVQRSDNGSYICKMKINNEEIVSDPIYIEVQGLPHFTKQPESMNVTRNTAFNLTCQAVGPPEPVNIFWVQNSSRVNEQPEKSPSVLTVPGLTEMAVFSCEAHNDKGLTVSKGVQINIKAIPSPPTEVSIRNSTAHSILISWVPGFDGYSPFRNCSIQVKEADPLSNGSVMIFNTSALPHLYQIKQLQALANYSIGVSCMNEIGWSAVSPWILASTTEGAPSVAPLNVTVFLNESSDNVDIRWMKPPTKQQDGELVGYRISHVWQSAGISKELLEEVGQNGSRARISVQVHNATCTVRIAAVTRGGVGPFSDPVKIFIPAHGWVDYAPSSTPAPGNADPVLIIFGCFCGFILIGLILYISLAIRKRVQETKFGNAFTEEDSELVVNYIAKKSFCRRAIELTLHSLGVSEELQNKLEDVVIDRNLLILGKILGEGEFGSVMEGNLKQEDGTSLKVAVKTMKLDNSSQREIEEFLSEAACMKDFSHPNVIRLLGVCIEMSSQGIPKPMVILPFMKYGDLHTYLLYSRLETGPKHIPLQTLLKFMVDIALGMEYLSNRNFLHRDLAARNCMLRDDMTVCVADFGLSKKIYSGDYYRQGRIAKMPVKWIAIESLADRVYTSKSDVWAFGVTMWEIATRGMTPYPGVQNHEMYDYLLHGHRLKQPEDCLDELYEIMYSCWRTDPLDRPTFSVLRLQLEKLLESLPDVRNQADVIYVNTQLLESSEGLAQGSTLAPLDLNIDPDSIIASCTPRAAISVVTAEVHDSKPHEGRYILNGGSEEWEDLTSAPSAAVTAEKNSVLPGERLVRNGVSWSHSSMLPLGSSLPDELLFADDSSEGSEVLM

[6] = target: T3, G protein-coupled receptor kinase 3 (Homo sapiens) (UniProt P35626); assay: Residual activity of GRK3 at 0.1 uM by microplate scintillation counting
T3 sequence (whole entry): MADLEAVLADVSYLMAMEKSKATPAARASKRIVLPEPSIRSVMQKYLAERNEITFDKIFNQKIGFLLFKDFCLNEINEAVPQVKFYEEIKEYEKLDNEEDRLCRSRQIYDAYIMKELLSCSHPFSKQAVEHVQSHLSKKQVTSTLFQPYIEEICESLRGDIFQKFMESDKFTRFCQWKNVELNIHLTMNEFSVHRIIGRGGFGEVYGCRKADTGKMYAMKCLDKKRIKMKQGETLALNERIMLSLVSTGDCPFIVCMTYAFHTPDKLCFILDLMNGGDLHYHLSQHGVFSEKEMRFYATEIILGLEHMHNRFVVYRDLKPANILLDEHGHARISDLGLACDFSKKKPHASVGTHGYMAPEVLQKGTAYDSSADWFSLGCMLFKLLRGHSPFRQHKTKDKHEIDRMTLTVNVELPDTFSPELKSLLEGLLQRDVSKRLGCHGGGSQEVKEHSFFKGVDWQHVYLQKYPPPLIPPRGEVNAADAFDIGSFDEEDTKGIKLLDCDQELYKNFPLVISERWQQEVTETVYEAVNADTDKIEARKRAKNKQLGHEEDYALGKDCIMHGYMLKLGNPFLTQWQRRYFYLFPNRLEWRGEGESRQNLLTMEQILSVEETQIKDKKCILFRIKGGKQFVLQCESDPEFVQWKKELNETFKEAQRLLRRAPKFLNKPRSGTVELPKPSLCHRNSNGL

[7] = target: BDNF/NT-3 growth factors receptor (Homo sapiens) (UniProt Q16620); assay: Residual activity of TRK-B at 1 uM by microplate scintillation counting
Chain of BDNF/NT-3 growth factors receptor (Homo sapiens) (Q16620 32-822 limits assumed): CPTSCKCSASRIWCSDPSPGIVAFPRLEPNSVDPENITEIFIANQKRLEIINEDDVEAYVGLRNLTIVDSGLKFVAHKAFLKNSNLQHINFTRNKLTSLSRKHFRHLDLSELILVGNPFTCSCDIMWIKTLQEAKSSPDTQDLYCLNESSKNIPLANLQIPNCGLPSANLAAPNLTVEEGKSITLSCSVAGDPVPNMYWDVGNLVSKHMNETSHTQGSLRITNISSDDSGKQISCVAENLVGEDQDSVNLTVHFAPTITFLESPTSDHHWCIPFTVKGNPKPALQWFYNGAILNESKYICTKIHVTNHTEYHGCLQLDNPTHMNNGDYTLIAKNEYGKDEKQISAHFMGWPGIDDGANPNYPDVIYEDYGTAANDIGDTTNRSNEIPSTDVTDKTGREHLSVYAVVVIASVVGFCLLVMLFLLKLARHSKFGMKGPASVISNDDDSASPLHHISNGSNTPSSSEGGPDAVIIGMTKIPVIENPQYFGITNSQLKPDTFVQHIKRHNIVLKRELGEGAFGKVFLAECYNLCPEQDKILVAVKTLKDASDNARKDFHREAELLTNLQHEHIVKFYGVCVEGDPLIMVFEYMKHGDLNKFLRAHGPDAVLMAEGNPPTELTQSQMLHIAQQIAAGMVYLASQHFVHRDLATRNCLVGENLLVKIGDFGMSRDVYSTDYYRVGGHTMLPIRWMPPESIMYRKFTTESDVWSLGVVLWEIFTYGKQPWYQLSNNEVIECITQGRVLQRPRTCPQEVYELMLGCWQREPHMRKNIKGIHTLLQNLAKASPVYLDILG

[8] = target: Calcium/calmodulin-dependent protein kinase type 1D (Homo sapiens) (UniProt Q8IU85); assay: Residual activity of CAMK1D at 0.1 uM by microplate scintillation counting
Chain of Calcium/calmodulin-dependent protein kinase type 1D (Homo sapiens) (Q8IU85 whole entry, looked up): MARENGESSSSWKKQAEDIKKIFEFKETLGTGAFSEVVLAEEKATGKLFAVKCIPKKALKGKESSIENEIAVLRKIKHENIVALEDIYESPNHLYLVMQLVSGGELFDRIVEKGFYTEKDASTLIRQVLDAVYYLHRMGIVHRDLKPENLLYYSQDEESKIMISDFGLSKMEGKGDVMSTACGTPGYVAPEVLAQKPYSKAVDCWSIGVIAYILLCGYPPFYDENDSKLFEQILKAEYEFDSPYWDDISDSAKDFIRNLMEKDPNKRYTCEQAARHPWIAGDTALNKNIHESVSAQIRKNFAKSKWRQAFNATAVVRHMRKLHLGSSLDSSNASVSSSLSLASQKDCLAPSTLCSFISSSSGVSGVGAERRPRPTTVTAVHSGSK

[9] = target: Leukocyte tyrosine kinase receptor (Homo sapiens) (UniProt P29376); assay: Residual activity of LTK at 10 uM by microplate scintillation counting
Chain of Leukocyte tyrosine kinase receptor (Homo sapiens) (P29376 whole entry): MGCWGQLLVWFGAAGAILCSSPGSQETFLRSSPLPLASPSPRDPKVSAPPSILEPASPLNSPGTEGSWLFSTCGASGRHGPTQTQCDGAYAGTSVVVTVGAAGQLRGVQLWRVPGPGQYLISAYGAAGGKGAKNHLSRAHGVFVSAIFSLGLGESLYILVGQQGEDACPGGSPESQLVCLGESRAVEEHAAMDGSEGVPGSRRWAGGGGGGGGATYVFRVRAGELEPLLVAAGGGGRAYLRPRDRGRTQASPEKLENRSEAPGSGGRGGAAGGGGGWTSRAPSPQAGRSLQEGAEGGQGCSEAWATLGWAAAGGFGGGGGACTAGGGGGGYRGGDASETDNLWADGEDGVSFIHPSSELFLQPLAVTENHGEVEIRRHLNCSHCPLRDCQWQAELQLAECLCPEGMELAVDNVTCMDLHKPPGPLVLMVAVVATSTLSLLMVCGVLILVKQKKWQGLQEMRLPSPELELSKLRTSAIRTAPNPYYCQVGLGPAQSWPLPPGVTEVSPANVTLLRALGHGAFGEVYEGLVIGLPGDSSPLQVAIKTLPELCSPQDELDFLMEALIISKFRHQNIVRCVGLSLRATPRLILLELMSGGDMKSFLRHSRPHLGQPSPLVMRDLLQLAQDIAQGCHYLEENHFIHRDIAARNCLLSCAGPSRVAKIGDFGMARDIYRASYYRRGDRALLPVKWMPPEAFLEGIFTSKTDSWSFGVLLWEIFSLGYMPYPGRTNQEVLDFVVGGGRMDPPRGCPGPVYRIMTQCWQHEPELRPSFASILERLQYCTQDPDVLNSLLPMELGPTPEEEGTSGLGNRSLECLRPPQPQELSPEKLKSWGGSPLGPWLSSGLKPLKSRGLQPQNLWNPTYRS

[10] = target: Calcium/calmodulin-dependent protein kinase type II subunit beta (Homo sapiens) (UniProt Q13554); assay: Residual activity of CAMK2B at 0.1 uM by microplate scintillation counting
Chain of Calcium/calmodulin-dependent protein kinase type II subunit beta (Homo sapiens) (Q13554 whole entry): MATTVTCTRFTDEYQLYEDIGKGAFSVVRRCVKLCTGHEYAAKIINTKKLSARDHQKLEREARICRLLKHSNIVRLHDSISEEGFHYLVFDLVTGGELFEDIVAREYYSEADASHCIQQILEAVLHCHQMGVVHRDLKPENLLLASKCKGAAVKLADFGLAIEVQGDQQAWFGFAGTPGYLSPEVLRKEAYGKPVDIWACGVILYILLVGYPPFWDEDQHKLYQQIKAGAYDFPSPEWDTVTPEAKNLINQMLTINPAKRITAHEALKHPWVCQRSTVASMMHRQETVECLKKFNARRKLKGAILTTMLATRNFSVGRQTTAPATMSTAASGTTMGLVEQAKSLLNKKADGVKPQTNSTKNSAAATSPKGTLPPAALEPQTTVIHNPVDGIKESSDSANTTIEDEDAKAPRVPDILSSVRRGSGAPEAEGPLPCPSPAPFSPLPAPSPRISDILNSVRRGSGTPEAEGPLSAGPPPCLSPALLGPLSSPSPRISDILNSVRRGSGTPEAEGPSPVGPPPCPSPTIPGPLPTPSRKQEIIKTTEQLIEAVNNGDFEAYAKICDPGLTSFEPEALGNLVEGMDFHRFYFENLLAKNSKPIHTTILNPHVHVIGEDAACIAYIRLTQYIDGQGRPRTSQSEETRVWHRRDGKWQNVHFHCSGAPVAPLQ

Chain of Serine/threonine-protein kinase PAK 2 (Homo sapiens) (Q13177 whole entry): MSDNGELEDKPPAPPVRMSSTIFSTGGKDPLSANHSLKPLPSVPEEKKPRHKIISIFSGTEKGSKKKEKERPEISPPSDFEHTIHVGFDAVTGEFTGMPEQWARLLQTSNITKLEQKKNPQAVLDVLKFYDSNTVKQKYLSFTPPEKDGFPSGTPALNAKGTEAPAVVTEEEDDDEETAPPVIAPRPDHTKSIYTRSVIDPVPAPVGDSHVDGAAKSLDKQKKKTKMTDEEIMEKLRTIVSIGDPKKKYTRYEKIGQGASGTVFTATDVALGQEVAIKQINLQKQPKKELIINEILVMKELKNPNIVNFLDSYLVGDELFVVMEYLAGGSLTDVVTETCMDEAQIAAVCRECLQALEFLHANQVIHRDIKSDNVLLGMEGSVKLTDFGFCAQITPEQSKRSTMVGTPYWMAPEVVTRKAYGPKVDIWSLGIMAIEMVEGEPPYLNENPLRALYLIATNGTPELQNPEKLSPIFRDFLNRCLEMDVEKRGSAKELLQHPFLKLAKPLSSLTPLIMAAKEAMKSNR

Structure (SMILES): COc1cc2c(Oc3ccc(-c4nc5ccccc5s4)cc3F)ncnc2cc1OCCCN1CCN(C)CC1
- residual activity [1]: 48%
- residual activity [2]: 73%
- residual activity [3]: 38%
- residual activity [4]: 98%
- residual activity [5]: 68%
- residual activity [6]: 95%
- residual activity [7]: 95%
- residual activity [8]: 104%
- residual activity [9]: 89%
- residual activity [10]: 65%

Structure (SMILES): COc1cc2c(Oc3ccc(-c4nc5ccccc5s4)cc3)ncnc2cc1OCCCN1CCCC1
- residual activity [1]: 49%
- residual activity [2]: 86%
- residual activity [3]: 57%
- residual activity [4]: 100%
- residual activity [5]: 57%
- residual activity [6]: 86%
- residual activity [7]: 104%
- residual activity [8]: 101%
- residual activity [9]: 200%
- residual activity [10]: 73%

Structure (SMILES): COc1cc2c(Oc3ccc(-c4nc5ccccc5s4)cc3)ncnc2cc1OCCCN1CCN(C)CC1
- residual activity [1]: 54%
- residual activity [2]: 85%
- residual activity [3]: 50%
- residual activity [4]: 118%
- residual activity [5]: 75%
- residual activity [6]: 94%
- residual activity [7]: 93%
- residual activity [8]: 88%
- residual activity [9]: 163%
- residual activity [10]: 100%

Source: ChEMBL document CHEMBL1152560, “Substituted 2-arylbenzothiazoles as kinase inhibitors: hit-to-lead optimization” (Bioorg Med Chem, 2009)
